According to US20080044805A1, “Biopolymer-Dye Complex and Use as a Bioassay” (STC.UNM, priority 2006, published 2008):

Key:
[1] = Water solubility of the cyanine dye; type: physicochemical
Text: For fluorescence of the polymers in solution, J-aggregate fluorescence became prominent for polymers having at least 33 cationic polymer repeat units. The fluorescence of the polymer is subject to very strong “super-quenching” by oppositely charged electron acceptors and energy-transfer quenchers that equals or exceeds that observed for conjugated polyelectrolytes by the same kind of quenchers. […] In exemplary embodiments, a cyanine dye of formula I, below, is used.

[2] = Hyaluronidase activity, scaffold destruction fluorescent assay; type: biochemical; details: hyaluronic acid substrate; estimated from maximal fluorescence of unreacted mix
Experimental: Hyaluronidase enzyme (11.3 U of E.C. 3.2.1.35) was mixed with 8 μg of hyaluronic acid in a total volume of 500 μL at 25° C. After 0, 20, 40, 60, 80, 100, 120 and 140 minutes, a portion of the reaction mixture was diluted into 20 μM concentrations of cyanine dye of Formula I dissolved in 20% methanol-80% water mixture dispensed into the wells of a 96 well microplate (Optiplate™-96, Perkin Elmer Life Sciences, Boston, Mass.) to a total volume of 275 μL. Sixty minutes after adding the reaction mixture to the cyanine solution, the fluorescence was measured using a Mithras LB 940 microplate spectrofluorometer (Berthold Instruments, Oak Ridge, Tenn.). The enzymatic reaction volume that was added to the cyanine dye solution represented approximately 364 ng of intact hyaluronic acid that might be present in the complete absence of enzymatic hydrolysis. This amount of hyaluronic was equivalent to the mid-point in the rise of the hyaluronic titration curve in FIG. 23. […] Hyaluronic acid in amounts of 0, 200, 400, 600, 800 and 1000 ng respectively were mixed with 1 U of hyaluronidase in a total volume of 100 μL. […] Based upon maximal fluorescence from reactions in which the enzyme and substrate were mixed but not allowed to react, it was estimated that hyaluronidase activity level reached a plateau between 60 to 80 minutes, representing 50% hydrolysis of the substrate.

Row | Compound | water solubility [1] | hydrolysis of the substrate at plateau [2] [%]
1 | CCN1C(=Cc2sc3ccc(Cl)cc3[n+]2CC)Sc2ccc(Cl)cc21.[I-] [cyanine dye of Formula I] | moderate | –
2 | hyaluronidase | – | 50
